In ChEMBL document CHEMBL1799959, “Cyathane diterpenes from Chinese mushroom Sarcodon scabrosus and their neurite outgrowth-promoting activity” (2011):
Active and inactive are the calls of the source. The rule behind the calls is not given here.

Columns and labels:
[1] = system: PC-12; test: Neuritogenic activity in rat PC12 cells in serum free medium assessed as neurite outgrowth at 25 uM after 24 hrs by light microscopy; format: functional, cell-based
[2] = system: PC-12; test: Neuritogenic activity in rat PC12 cells in serum free medium assessed as potentiation of NGF-induced neurite outgrowth at 25 uM after 24 hrs by light microscopy in presence of 20 ng/ml NGF; format: functional
[3] = system: PC-12; test: Neuritogenic activity in rat PC12 cells in serum free medium assessed as potentiation of NGF-induced neurite outgrowth at 25 uM after 24 hrs by light microscopy in presence of 20 ng/ml NGF relative to NGF; format: functional, cell-based

| SMILES | Activity [1] | Activity [2] | Activity [3] |
| --- | --- | --- | --- |
| C[C@@H](CO)C1=C2[C@H]3C[C@H](O)C(COC(=O)c4ccccc4)=C[C@H](O)[C@]3(C)CC[C@@]2(C)CC1 | inactive | inactive | – |
| C[C@H](CO)C1=C2[C@H]3CC=C(C=O)CC(=O)[C@]3(C)CC[C@@]2(C)CC1 [SARCODONIN G] | inactive | 24.9% | Active |
| CC(=O)OC[C@@H](C)C1=C2[C@H]3CC=C(C=O)CC(=O)[C@]3(C)CC[C@@]2(C)CC1 | inactive | inactive | – |
| C[C@H](CO)C1=C2C3=CC=C(C=O)C[C@H](O)[C@]3(C)CC[C@@]2(C)CC1 [SARCODONIN A] | inactive | 20% | Active |
| CC(C)C1=C2[C@H]3C[C@@H](OC(=O)c4ccccc4)C(COC(=O)c4ccccc4)=C[C@H](O)[C@]3(C)CC[C@@]2(C(=O)O)CC1 | inactive | inactive | – |
| C[C@@H](CO)C1=C2[C@H]3C[C@H](O)C(COC(=O)c4ccccc4)=C[C@H](O)[C@]3(C)CC[C@@]2(CO)CC1 | inactive | inactive | – |
| C[C@@H](CO)C1=C2[C@H]3CC=C(C=O)CC(=O)[C@]3(C)CC[C@@]2(CO)CC1 | inactive | inactive | – |
